# Measurements from ChEMBL document CHEMBL3797190, “Development of 3,5-Dinitrobenzylsulfanyl-1,3,4-oxadiazoles and Thiadiazoles as Selective Antitubercular Agents Active Against Replicating and Nonreplicating Mycobacterium tuberculosis” (J Med Chem, 2016).
# Active and inactive are the calls of the source. The calls are words filed in the database; no cut-off is given here.
# Tests used:
# [1] = test system: Mycobacterium tuberculosis; assay: Inhibition of RNA biosynthesis in Mycobacterium tuberculosis H37Ra assessed as reduction of [14C]-uracil incorporation at 1 ug/ml preincubated for 1 hr followed by radiolabeling with [14C]-uracil for 24 hrs by scintillation spectrometry; format: functional
# [2] = test system: Mycobacterium tuberculosis; assay: Inhibition of proteosynthesis in Mycobacterium tuberculosis H37Ra assessed as reduction of [14C]-methionine incorporation at 1 ug/ml preincubated for 1 hr followed by radiolabeling with [14C]-methionine for 24 hrs by scintillation spectrometry; format: functional
# Mycobacterium avium [3] = assay: Antimycobacterial activity against Mycobacterium avium CNCTC My 330/88 after 14 days by microdilution method; format: functional; conditions: CNCTC My 330/88, 336 h
# Mycobacterium kansasii [4] = assay: Antimycobacterial activity against Mycobacterium kansasii CNCTC My 235/80 after 14 days by microdilution method; format: functional; conditions: CNCTC My 235/80, 336 h
# Mycobacterium kansasii [5] = assay: Antimycobacterial activity against Mycobacterium kansasii CNCTC My 6509/96 after 14 days by microdilution method; format: functional; conditions: CNCTC My 6509/96, 336 h
# Mycobacterium avium [6] = assay: Antimycobacterial activity against Mycobacterium avium CNCTC My 330/88 after 21 days by microdilution method; format: functional; conditions: CNCTC My 330/88, 504 h
# Mycobacterium kansasii [7] = assay: Antimycobacterial activity against Mycobacterium kansasii CNCTC My 235/80 after 21 days by microdilution method; format: functional; conditions: CNCTC My 235/80, 504 h
# Mycobacterium kansasii [8] = assay: Antimycobacterial activity against Mycobacterium kansasii CNCTC My 235/80 after 7 days by microdilution method; format: functional; conditions: CNCTC My 235/80, 168 h
# Mycobacterium kansasii [9] = assay: Antimycobacterial activity against Mycobacterium kansasii CNCTC My 6509/96 after 7 days by microdilution method; format: functional; conditions: CNCTC My 6509/96, 168 h
# HeLa [10] = assay: Cytotoxicity against human HeLa cells assessed as cell viability after 24 hrs by MTS assay; format: cell-based
# HeLa [11] = assay: Cytotoxicity against human HeLa cells assessed as cell viability after 48 hrs by MTS assay; format: cell-based
# [12] = Cytotoxicity against MDCK2-MDR1 cells assessed as cell viability after 24 hrs by MTS assay; format: ADME, cell-based; conditions: Canis lupus familiaris, MDCK-II
# [13] = Cytotoxicity against human HuH7 cells assessed as cell viability at 20 uM after 48 hrs by MTS assay; format: cell-based, Huh-7; conditions: read-out: Activity
# [14] = Cytotoxicity against human HeLa cells assessed as cell viability at 20 uM after 24 hrs by MTS assay; format: cell-based; conditions: read-out: Activity
# [15] = Cytotoxicity against human HeLa cells assessed as cell viability at 20 uM after 48 hrs by MTS assay; format: cell-based; conditions: read-out: Activity
# [16] = Cytotoxicity against MDCK2-MDR1 cells assessed as cell viability at 20 uM after 24 hrs by MTS assay; format: ADME, cell-based, Canis lupus familiaris, MDCK-II; conditions: dog, read-out: Activity
# [17] = Cytotoxicity against MDCK2-MDR1 cells assessed as cell viability at 20 uM after 48 hrs by MTS assay; format: ADME, cell-based, Canis lupus familiaris, MDCK-II; conditions: dog, read-out: Activity
# [18] = Cytotoxicity against primary human hepatocytes assessed as cell viability at 20 uM after 48 hrs by MTS assay; format: cell-based, Hepatocyte; conditions: read-out: Activity
# HepG2 = assay: Cytotoxicity against human HepG2 cells assessed as cell viability after 48 hrs by MTS assay; format: cell-based; conditions: HepG2, 48 h
# Salmonella typhimurium = assay: Mutagenic activity in Salmonella typhimurium TA100 assessed as reverse mutation at 30 uM by Ames test; format: toxicity, organism-based; conditions: salmonella enterica subsp. enterica serovar typhimurium
# [19] = Chemical stability of compound in DMSO at 100 uM after 1 month by HPLC analysis; format: physicochemical; conditions: 730.5 h
# [20] = Intrinsic clearance in human liver microsomes assessed per mg of protein at 3 uM preincubated for 5 mins followed by NADPH addition by HPLC analysis; format: ADME; conditions: read-out: CLH
# [21] = Aqueous solubility of compound in water with 0.01 to 1% DMSO at 2 to 200 uM by HPLC analysis; format: physicochemical
# [22] = Aqueous solubility of compound in distilled water at 0.2 mg/ml after 24 hrs by HPLC analysis; format: physicochemical
# [23] = Selectivity index, ratio of IC50 for human HepG2 cells to MIC>99 for Mycobacterium tuberculosis CNCTC My 331/88; format: toxicity, cell-based; conditions: read-out: Selectivity Index
# Candida albicans = assay: Antifungal activity against Candida albicans ATCC 44859 after 24 to 48 hrs by broth microdilution method; format: functional
# Candida tropicalis = assay: Antifungal activity against Candida tropicalis 156 after 24 to 48 hrs by broth microdilution method; format: functional
# Aspergillus fumigatus = assay: Antifungal activity against Aspergillus fumigatus 231 after 24 to 48 hrs by broth microdilution method; format: functional
# Lichtheimia corymbifera = assay: Antifungal activity against Absidia corymbifera 272 after 24 to 48 hrs by broth microdilution method; format: functional
# [24] = test system: Trichophyton mentagrophytes; assay: Antifungal activity against Trichophyton mentagrophytes 445 after 72 to 120 hrs by broth microdilution method; format: functional
# Staphylococcus aureus [25] = assay: Antibacterial activity against Staphylococcus aureus ATCC 6538 after 24 to 48 hrs by broth microdilution method; format: functional
# Staphylococcus aureus [26] = assay: Antibacterial activity against methicillin-resistant Staphylococcus aureus H 5996/08 after 24 to 48 hrs by broth microdilution method; format: functional
# [27] = test system: Staphylococcus epidermidis; assay: Antibacterial activity against Staphylococcus epidermidis H 6966/08 after 24 to 48 hrs by broth microdilution method; format: functional
# Enterococcus faecalis = assay: Antibacterial activity against Enterococcus faecalis J 14365/08 after 24 to 48 hrs by broth microdilution method; format: functional
# Escherichia coli = assay: Antibacterial activity against Escherichia coli ATCC 8739 after 24 to 48 hrs by broth microdilution method; format: functional
# Klebsiella pneumoniae = assay: Antibacterial activity against ESBL producing Klebsiella pneumoniae J 14368/08 after 24 to 48 hrs by broth microdilution method; format: functional
# [28] = test system: Mycobacterium tuberculosis; assay: Antimycobacterial activity against non-replicating streptomycin-starved Mycobacterium tuberculosis SS18b-Lux measured at 5 mins to 6 days by luciferase assay; format: functional, organism-based
# [29] = test system: Mycobacterium tuberculosis; assay: Antimycobacterial activity against non-replicating streptomycin-starved Mycobacterium tuberculosis SS18b-Lux by resazurin reduction microplate assay; format: functional, organism-based
# [30] = target: Decaprenylphosphoryl-beta-D-ribose oxidase (Mycobacterium smegmatis (strain ATCC 700084 / mc(2)155)) (UniProt A0R607); assay: Inhibition of DprE1 in mixture of Mycobacterium smegmatis MC2 155 membrane and cell envelope fractions assessed as incorporation of P[14C]RPP into [14C]-decaprenylphosphoryl arabinose up to 0.6 mM incubated for 1 hr by TLC/autoradiographic method; conditions: Mycolicibacterium smegmatis MC2 155
# [31] = test system: Mycobacterium tuberculosis; assay: Antimycobacterial activity against Mycobacterium tuberculosis H37Ra assessed as growth inhibition at 0.5 ug/ml preincubated for 24 hrs followed by radiolabeling with [14C]-acetate for 24 hrs; format: functional; conditions: read-out: GI
# [32] = test system: Mycobacterium tuberculosis H37Ra; assay: Inhibition of DprE1 in Mycobacterium tuberculosis H37Ra assessed as accumulation of trehalose dimycolate at 0.2 ug/ml preincubated for 24 hrs followed by radiolabeling with [14C]-acetate for 24 hrs by TLC/autoradiographic method
# [33] = test system: Mycobacterium tuberculosis; assay: Antimycobacterial activity against Mycobacterium tuberculosis CNCTC My 331/88 using 1 month stored compound at room temperature in DMSO after 14 to 21 days by microdilution method; format: functional, organism-based
# Sequence of Decaprenylphosphoryl-beta-D-ribose oxidase (Mycobacterium smegmatis (strain ATCC 700084 / mc(2)155)) (A0R607 whole entry): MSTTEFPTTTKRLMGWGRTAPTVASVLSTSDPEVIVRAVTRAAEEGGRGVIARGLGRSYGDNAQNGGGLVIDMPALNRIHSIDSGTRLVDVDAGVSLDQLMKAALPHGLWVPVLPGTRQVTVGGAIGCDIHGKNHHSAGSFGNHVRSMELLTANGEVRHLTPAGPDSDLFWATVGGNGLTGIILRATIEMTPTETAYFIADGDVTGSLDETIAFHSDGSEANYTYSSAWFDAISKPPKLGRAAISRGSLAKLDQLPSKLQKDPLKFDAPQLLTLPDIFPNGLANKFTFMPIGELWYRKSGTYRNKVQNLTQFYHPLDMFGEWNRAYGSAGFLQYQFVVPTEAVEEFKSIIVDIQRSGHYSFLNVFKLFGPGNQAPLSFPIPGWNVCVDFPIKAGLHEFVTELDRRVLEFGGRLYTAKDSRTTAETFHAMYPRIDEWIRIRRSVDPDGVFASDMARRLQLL
smiles,measurement,setting,value
Cc1ccc(-c2nnc(SCc3cc([N+](=O)[O-])cc([N+](=O)[O-])c3)o2)cc1,inhibition at 1 µg/mL,[1],50%
same,inhibition at 1 µg/mL,[2],37%
same,MIC99,Mycobacterium avium [3],8 µM
same,MIC99,Mycobacterium kansasii [4],0.06 µM
same,MIC99,Mycobacterium kansasii [5],0.06 µM
same,MIC99,Mycobacterium avium [6],16 µM
same,MIC99,Mycobacterium kansasii [7],0.06 µM
same,MIC99,Mycobacterium kansasii [8],0.06 µM
same,MIC99,Mycobacterium kansasii [9],0.06 µM
same,IC50,HeLa [10],> 20 µM
same,IC50,HeLa [11],> 20 µM
same,IC50,[12],> 20 µM
same,"viability at 48 h, 20 µM",[13],53.1%
same,"viability at 24 h, 20 µM",[14],87.2%
same,"viability at 48 h, 20 µM",[15],118%
same,"viability at 24 h, 20 µM",[16],98%
same,"viability at 48 h, 20 µM",[17],48.5%
same,"viability at 48 h, 20 µM",[18],95.1%
same,IC50,HepG2,> 50 µM
same,Activity,Salmonella typhimurium,Non-toxic
same,Stability,[19],Stable
same,microsomal CLint at 3 µM,[20],86 µL/min/mg
same,solubility kinetic,[21],0.5 µM
same,solubility at 24 h,[22],0.067 µM
same,selectivity ratio,[23],> 500
same,MIC80,Candida albicans,> 125 µM
same,MIC80,Candida tropicalis,> 125 µM
same,MIC50,Aspergillus fumigatus,> 125 µM
same,MIC50,Lichtheimia corymbifera,> 125 µM
same,MIC50,[24],> 125 µM
same,MIC95,Staphylococcus aureus [25],> 125 µM
same,MIC95,Staphylococcus aureus [26],> 125 µM
same,MIC95,[27],> 125 µM
same,MIC95,Enterococcus faecalis,> 125 µM
same,MIC95,Escherichia coli,> 125 µM
same,MIC95,Klebsiella pneumoniae,> 125 µM
same,Activity,[28],Dose-dependent effect
same,Activity,[29],Dose-dependent effect
same,inhibition,[30],inactive
same,inhibition of growth at 0.5 µg/mL,[31],36%
same,inhibition,[32],inactive
same,Activity,[33],Active
O=[N+]([O-])c1cc(CSc2nnc(-c3ccc(Cl)cc3)s2)cc([N+](=O)[O-])c1,inhibition at 1 µg/mL,[1],13%
same,inhibition at 1 µg/mL,[2],20%
same,MIC99,Mycobacterium avium [3],8 µM
same,MIC99,Mycobacterium kansasii [4],0.5 µM
same,MIC99,Mycobacterium kansasii [5],0.25 µM
same,MIC99,Mycobacterium avium [6],16 µM
same,MIC99,Mycobacterium kansasii [7],0.5 µM
same,MIC99,Mycobacterium kansasii [8],0.125 µM
same,MIC99,Mycobacterium kansasii [9],0.125 µM
same,IC50,HeLa [10],> 20 µM
same,IC50,HeLa [11],> 20 µM
same,IC50,[12],> 20 µM
same,"viability at 48 h, 20 µM",[13],43.4%
same,"viability at 24 h, 20 µM",[14],92.8%
same,"viability at 48 h, 20 µM",[15],108%
same,"viability at 24 h, 20 µM",[16],102%
same,"viability at 48 h, 20 µM",[17],91.4%
same,"viability at 48 h, 20 µM",[18],102%
same,IC50,HepG2,> 50 µM
same,Activity,Salmonella typhimurium,Non-toxic
same,Stability,[19],Stable
same,microsomal CLint at 3 µM,[20],29 µL/min/mg
same,solubility kinetic,[21],0.54 µM
same,solubility at 24 h,[22],0.03 µM
same,selectivity ratio,[23],> 500
same,MIC80,Candida albicans,> 125 µM
same,MIC80,Candida tropicalis,> 125 µM
same,MIC50,Aspergillus fumigatus,> 125 µM
same,MIC50,Lichtheimia corymbifera,> 125 µM
same,MIC50,[24],> 125 µM
same,MIC95,Staphylococcus aureus [25],> 125 µM
same,MIC95,Staphylococcus aureus [26],> 125 µM
same,MIC95,[27],> 125 µM
same,MIC95,Enterococcus faecalis,> 125 µM
same,MIC95,Escherichia coli,> 125 µM
same,MIC95,Klebsiella pneumoniae,> 125 µM
same,Activity,[28],Dose-dependent effect
same,Activity,[29],Dose-dependent effect
same,inhibition,[30],inactive
same,inhibition of growth at 0.5 µg/mL,[31],12%
same,inhibition,[32],inactive
same,Activity,[33],Active
